ChEMBL document CHEMBL1126977, “Derivatives of 1-hydroxy-3-aminopyrrolidin-2-one (HA-966). Partial agonists at the glycine site of the NMDA receptor” (Bioorg Med Chem Lett, 1993)

Experiments:
[1] = biological target: Glutamate receptor ionotropic, NMDA 1 (Rattus norvegicus, UniProt P35439); test: Inhibition of [3H]glycine binding to rat cortical membranes; type: cell membranes, Membrane
[2] = species: Rattus norvegicus; test: In vitro inhibitory activity of glycine (0.3 uM) responses in isolated cultured cortical neurons; type: functional
[3] = Compound was evaluated for the pKa value; type: physicochemical
[4] = Compound was evaluated for the pKa value in experiment 2; type: physicochemical
[5] = Compound was evaluated for the pKa value in experiment 1; type: physicochemical
[6] = Compound was evaluated for the octanol-water partition coefficient […] at pH 7.4; type: physicochemical
[7] = species: Rattus norvegicus; test: Tested in vitro for the inhibitory constant of glycine (0.3 uM) responses in isolated cultured cortical neurones; type: functional

Compound | IC50 [1] [µM] | Ki [2] [µM] | Inhibition [2] [%] | further results
N[C@H]1C(=O)N(O)C[C@H]1O | 1.3 | 0.75 |  | 
CCC[C@@H]1CNC(=O)[C@@H]1N | > 100 |  | 39 | 
CC[C@@H]1CN(O)C(=O)[C@@H]1N | 15 | 15.4 |  | 
C[C@@H]1CN(OCc2ccccc2)C(=O)[C@@H]1N |  |  |  | pKa [3]: 6.1
C[C@H]1CN(O)C(=O)[C@@H]1N | > 100 |  |  | 
N[C@H]1C(=O)N(O)C[C@@H]1O | 313 |  | 30 | 
O=C1C2CC(CN2)N1O (stereo not given) |  | 5 |  | 
NC1CCN(OCc2ccccc2)C1=O (stereo not given) |  |  |  | pKa [4]: 6.6; pKa [5]: 6.2
C[C@H]1CN(O)C(=O)[C@H]1N | 86 |  |  | 
C[C@@H]1C2NCCC1N(O)C2=O (stereo not given in full) | > 100 | > 80 |  | 
C[C@H]1C2NCCC1N(O)C2=O (stereo not given in full) | 48 | 8.2 |  | 
O=C1C2CC(CCN2)N1O (stereo not given) | 19 | 3.5 |  | 
O=C1C2NCCC2CN1O (stereo not given) | > 100 |  | 52 | 
N[C@H]1C(=O)N(O)C[C@H]1CCO | > 100 |  | 59 | 
N[C@H]1C(=O)N(O)C[C@H]1CO | > 100 |  | 63 | 
O=C1C2CC(CCN2)CN1O (stereo not given) | > 100 |  | 28 | 
O=C1C2CC(CN2)CN1O (stereo not given) | > 100 |  | 16 | 
N[C@H]1C(=O)N(O)C[C@H]1c1ccccc1 | > 100 |  | 0 | 
NC1CCN(O)C1=O (single isomer, unassigned; (-)) | 339 |  |  | 
N[C@@H]1CCN(O)C1=O (stereo in doubt; 1) | 27.2 | 6.3 |  | pKa [3]: 8.1; logD [6]: 3.52
C[C@@H]1CN(O)C(=O)[C@@H]1N (stereo in doubt; 2) | 2.9 | 1.3 |  | pKa [3]: 8; logD [6]: 3.42
N[C@@H]1CCN(O)C1=O (stereo in doubt; (+)-1) | 12.5 | 2.5 |  | 
C[C@@H]1CN(O)C(=O)[C@@H]1N (stereo in doubt; (+)-2) | 1.4 |  |  | Ki [7]: 0.65 µM
